Data reported in publication PMC11882969 (Nature Communications, 2025).

Biological target: CB1 (rCB1) (Rattus norvegicus, UniProt P20272)
Assay: Single-point radioligand displacement screen
Format: binding
Conditions: 10 µM, 1 µM or 300 nM by cell colour (not visible)

CB1 (rCB1), sequence (P20272 whole entry): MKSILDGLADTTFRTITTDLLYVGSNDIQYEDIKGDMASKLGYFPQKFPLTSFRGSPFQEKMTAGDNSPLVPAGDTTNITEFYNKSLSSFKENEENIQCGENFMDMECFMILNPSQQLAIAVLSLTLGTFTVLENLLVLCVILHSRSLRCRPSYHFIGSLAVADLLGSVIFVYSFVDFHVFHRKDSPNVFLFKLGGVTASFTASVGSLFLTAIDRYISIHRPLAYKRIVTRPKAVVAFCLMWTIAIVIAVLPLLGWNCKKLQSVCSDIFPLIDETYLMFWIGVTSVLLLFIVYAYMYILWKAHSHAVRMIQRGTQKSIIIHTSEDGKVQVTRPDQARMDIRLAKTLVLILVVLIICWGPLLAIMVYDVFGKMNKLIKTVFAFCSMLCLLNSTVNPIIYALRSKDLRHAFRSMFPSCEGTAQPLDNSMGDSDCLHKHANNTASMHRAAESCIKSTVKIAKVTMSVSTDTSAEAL

SMILES | % 1H-CP-55,940 displacement (mean) from single point screen
Cn1nc(-c2nnc(C(C)(C)Oc3ccc(C#N)cc3)o2)c2ccccc2c1=O [0450_23] | -19.18%
Cn1nc(-c2nnc(CCOc3ccc(Cl)cc3)o2)c2ccccc2c1=O [0450_24] | 12.07%
Cn1nc(Cc2nnc(C(C)(C)Oc3ccc(Cl)cc3)o2)c2ccccc2c1=O [0450_25] | -12.39%
Cn1nc(CNC(=O)C(C)(C)Oc2ccc(Cl)cc2)c2ccccc2c1=O [0450_26] | 7.64%
COC(=O)[C@H](C)NC(=O)c1cc(C)n(-c2cccc(F)c2)n1 [1486_11] | -7.46%
